# Reference: ChEMBL document CHEMBL1201862, “PubChem BioAssay data set” (2004)
#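 Protocol summary: plate cells (96-well), add compound at 5 concentrations, incubate 48 h, interpolate endpoints linearly. Abbreviation: GI50, concentration required for 50% inhibition of growth.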 Calls of active or inactive are those of the source. No stated cut-off is given here; in the data, active = GI50 up to about 1.1 µM and inactive = higher.
# Columns and labels:
# Assay in all cases: inhibition of tumour cell growth, NCI panel, 48 h
# SK-MEL-2 = tested on: SK-MEL-2
# U-251 = tested on: U-251
# MDA-MB-435 = tested on: MDA-MB-435
# SF-268 = tested on: SF-268
# SK-MEL-5 = tested on: SK-MEL-5
# HL-60 = tested on: HL-60
# MDA-MB-231 = tested on: MDA-MB-231
# HOP-92 = tested on: HOP-92
# UO-31 = tested on: UO-31
# HOP-62 = tested on: HOP-62
# HCC 2998 = tested on: HCC 2998
# CAKI-1 = tested on: CAKI-1
# MDA-N = tested on: MDA-N
# NCI-H460 = tested on: NCI-H460
# NCI-H522 = tested on: NCI-H522
# M14 = tested on: M14
# HT-29 = tested on: HT-29
# A549 = tested on: A549
# SF-539 = tested on: SF-539
# SNB-75 = tested on: SNB-75
Structure (SMILES),GI50 (SK-MEL-2),GI50 (U-251),GI50 (MDA-MB-435),GI50 (SF-268),GI50 (SK-MEL-5),GI50 (HL-60),GI50 (MDA-MB-231),GI50 (HOP-92),GI50 (UO-31),GI50 (HOP-62),GI50 (HCC 2998),GI50 (CAKI-1),GI50 (MDA-N),GI50 (NCI-H460),GI50 (NCI-H522),GI50 (M14),GI50 (HT-29),GI50 (A549),GI50 (SF-539),GI50 (SNB-75)
CN(C)CCNc1ccccn1,> 100 µM (inactive),> 100 µM (inactive),> 100 µM (inactive),> 100 µM (inactive),> 100 µM (inactive),> 100 µM (inactive),> 100 µM (inactive),> 100 µM (inactive),> 100 µM (inactive),> 100 µM (inactive),> 100 µM (inactive),> 100 µM (inactive),> 100 µM (inactive),> 100 µM (inactive),> 100 µM (inactive),> 100 µM (inactive),> 100 µM (inactive),> 100 µM (inactive),–,–
CC(C)=NNC1=NC(C)(C)P(=O)(NNc2ncccn2)S1 (stereo not given),> 100 µM (inactive),> 100 µM (inactive),> 100 µM (inactive),> 100 µM (inactive),> 100 µM (inactive),–,> 100 µM (inactive),> 100 µM (inactive),> 100 µM (inactive),> 100 µM (inactive),> 100 µM (inactive),> 100 µM (inactive),> 100 µM (inactive),> 100 µM (inactive),> 100 µM (inactive),> 100 µM (inactive),> 100 µM (inactive),> 100 µM (inactive),> 100 µM (inactive),–
CC(C)CC1C(=O)NCCC(NC(=O)C(Cc2ccc(OC(C)(C)C)cc2)NC(=O)OC(C)(C)C)C(=O)NC(Cc2ccccc2)C(=O)NC(Cc2ccccc2)NC1=O (stereo not given),–,12.8 µM (inactive),2.82 µM (inactive),4.51 µM (inactive),31 µM (inactive),8.36 µM (inactive),4.9 µM (inactive),11.2 µM (inactive),> 100 µM (inactive),19.5 µM (inactive),17.3 µM (inactive),10.8 µM (inactive),5.82 µM (inactive),2.96 µM (inactive),11.6 µM (inactive),12.6 µM (inactive),3.67 µM (inactive),–,23.2 µM (inactive),–
COC(=O)[C@H]1ON2O[C@H](OC3CCCC[C@@H]3c3ccccc3)C[C@@H]3CC[C@H]1[C@@]32C (stereo not given in full),84.5 µM (inactive),77.6 µM (inactive),> 100 µM (inactive),> 100 µM (inactive),56.4 µM (inactive),9.66 µM (inactive),> 100 µM (inactive),81.7 µM (inactive),97.3 µM (inactive),> 100 µM (inactive),> 100 µM (inactive),> 100 µM (inactive),> 100 µM (inactive),> 100 µM (inactive),45.9 µM (inactive),> 100 µM (inactive),51.8 µM (inactive),60.3 µM (inactive),–,36.4 µM (inactive)
C=CC(C)(C)n1cc(C2=C(O)C(=O)C(c3cn(C(C)(C)C=C)c4ccccc34)=C(OC(C)=O)C2=O)c2ccccc21,1.02 µM (active),0.426 µM (active),0.513 µM (active),0.655 µM (active),0.64 µM (active),0.571 µM (active),1.3 µM (inactive),0.598 µM (active),1.07 µM (active),0.628 µM (active),0.908 µM (active),1.08 µM (active),0.662 µM (active),0.592 µM (active),1.55 µM (inactive),1.25 µM (inactive),0.807 µM (active),0.426 µM (active),–,0.419 µM (active)
Nc1ccc2c(c1)S(=O)(=O)c1cc(N)ccc1-2,> 100 µM (inactive),> 100 µM (inactive),> 100 µM (inactive),> 100 µM (inactive),> 100 µM (inactive),78.5 µM (inactive),> 100 µM (inactive),> 100 µM (inactive),> 100 µM (inactive),> 100 µM (inactive),> 100 µM (inactive),> 100 µM (inactive),> 100 µM (inactive),> 100 µM (inactive),> 100 µM (inactive),> 100 µM (inactive),> 100 µM (inactive),> 100 µM (inactive),> 100 µM (inactive),–
